Experimental data reported in US20240228469A1, “PCSK9 INHIBITORS AND METHODS OF USE THEREOF” (AstraZeneca AB, priority 2022, published 2024).
pEC50, pIC50: −log10 of the molar value.

Key:
[1] = target: T1, potassium ion channel hERG (Homo sapiens, UniProt Q12809); assay: Assay 5 hERG assay (patch clamp, CHO cells over-expressing hERG); type: cell-based; conditions: SyncroPatch 384PE, room temperature, geometric mean, read-out: Assay 5 (hERG Hu CHO if EPh CR-Syncro) GMean IC50
T1 construct: expressed in transfected cells; host or cells: Chinese hamster ovary K1 (CHO)
In short: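 hERG currents recorded by automated patch clamp at room temperature in CHO-K1 cells, 6-point cumulative concentrations. SyncroPatch runs used KF-based internal (pH 7.2) and NMDG-containing external solution (pH 7.4), 0.33% DMSO; QPatchII runs used 2% or 0.4% DMSO. Only wells meeting seal-resistance and current-size criteria kept.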

[2] = target: GSK3β (Glycogen synthase kinase-3 beta) (Homo sapiens, UniProt P49841); assay: Assay 6 GSK3β assay (ThermoFisher Z-Lyte FRET); type: biochemical; conditions: ATP Conc: 10 μM, geometric mean; read-out: Assay 6 (GSK3β FRET-Z-Lyte Cr) GMean IC50
In short: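 Z-Lyte FRET: 0.22-0.92 ng kinase with 2 μM Ser/Thr 09 peptide in HEPES pH 7.5, MgCl2, EGTA, 60 min at room temperature, then 60 min development. Compounds in 1% DMSO, 10-point 3-fold series from 10 μM; sigmoidal dose-response fit.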

PCSK9 [3] = target: T2, PCSK9 (Homo sapiens, UniProt Q8NBP7, G670E/V474I); assay: biochemical
PCSK9 [4] = target: T2, PCSK9; assay: Assay 3 PCSK9 LDL-C uptake assay in HepG2 cells; type: cell-based; set-up: TEV site (C); His6 (C); host or cells: added to HepG2 (ATCC #HB-8065); conditions: 125 nM PCSK9, pHrodo Red-LDL, read-out: Assay 3 LDL uptake potency
In short: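 HepG2 cells were plated for 24 h, then exposed for 24 h at 37 °C to compounds (half-log series, 10 μM top) with 125 nM exogenous PCSK9. pHrodo Red-LDL ([…]) uptake was then imaged by fluorescence at 4 h and 24 h. Signal was normalized as % effect between DMSO and 100 nM evolocumab, with a four-parameter logistic fit.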

Sequence of GSK3β (Glycogen synthase kinase-3 beta) (P49841 whole entry): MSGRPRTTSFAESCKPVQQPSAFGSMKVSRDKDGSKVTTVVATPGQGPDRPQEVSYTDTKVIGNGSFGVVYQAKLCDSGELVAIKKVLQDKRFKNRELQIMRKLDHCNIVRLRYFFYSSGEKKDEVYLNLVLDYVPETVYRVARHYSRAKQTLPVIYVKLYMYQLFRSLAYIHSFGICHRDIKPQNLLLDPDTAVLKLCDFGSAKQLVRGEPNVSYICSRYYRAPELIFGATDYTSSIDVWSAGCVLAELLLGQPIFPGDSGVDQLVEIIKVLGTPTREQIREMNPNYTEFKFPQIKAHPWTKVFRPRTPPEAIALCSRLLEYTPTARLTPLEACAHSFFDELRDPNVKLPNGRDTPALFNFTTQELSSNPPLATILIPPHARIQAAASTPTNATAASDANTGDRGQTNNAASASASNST
T2 sequence (Q8NBP7 with tags, fused parts or gaps V474I/G670E): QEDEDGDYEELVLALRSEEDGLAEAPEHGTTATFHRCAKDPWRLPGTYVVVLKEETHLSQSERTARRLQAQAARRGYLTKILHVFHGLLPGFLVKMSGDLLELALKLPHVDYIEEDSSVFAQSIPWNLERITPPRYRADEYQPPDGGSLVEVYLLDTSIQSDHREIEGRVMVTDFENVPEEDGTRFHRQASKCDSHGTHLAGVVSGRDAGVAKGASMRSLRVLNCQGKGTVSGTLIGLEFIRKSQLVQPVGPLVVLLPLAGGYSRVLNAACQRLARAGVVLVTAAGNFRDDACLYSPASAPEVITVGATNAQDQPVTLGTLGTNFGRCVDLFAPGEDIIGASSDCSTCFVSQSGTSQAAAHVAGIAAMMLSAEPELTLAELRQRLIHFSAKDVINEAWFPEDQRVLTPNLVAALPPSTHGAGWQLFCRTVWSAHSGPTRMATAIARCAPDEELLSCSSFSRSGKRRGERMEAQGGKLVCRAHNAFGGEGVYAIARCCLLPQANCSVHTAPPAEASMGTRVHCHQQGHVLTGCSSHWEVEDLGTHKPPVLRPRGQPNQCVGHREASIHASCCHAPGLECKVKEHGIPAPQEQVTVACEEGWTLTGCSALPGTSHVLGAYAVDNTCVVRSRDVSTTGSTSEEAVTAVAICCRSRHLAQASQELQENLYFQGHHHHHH
T1 sequence (Q12809 whole entry): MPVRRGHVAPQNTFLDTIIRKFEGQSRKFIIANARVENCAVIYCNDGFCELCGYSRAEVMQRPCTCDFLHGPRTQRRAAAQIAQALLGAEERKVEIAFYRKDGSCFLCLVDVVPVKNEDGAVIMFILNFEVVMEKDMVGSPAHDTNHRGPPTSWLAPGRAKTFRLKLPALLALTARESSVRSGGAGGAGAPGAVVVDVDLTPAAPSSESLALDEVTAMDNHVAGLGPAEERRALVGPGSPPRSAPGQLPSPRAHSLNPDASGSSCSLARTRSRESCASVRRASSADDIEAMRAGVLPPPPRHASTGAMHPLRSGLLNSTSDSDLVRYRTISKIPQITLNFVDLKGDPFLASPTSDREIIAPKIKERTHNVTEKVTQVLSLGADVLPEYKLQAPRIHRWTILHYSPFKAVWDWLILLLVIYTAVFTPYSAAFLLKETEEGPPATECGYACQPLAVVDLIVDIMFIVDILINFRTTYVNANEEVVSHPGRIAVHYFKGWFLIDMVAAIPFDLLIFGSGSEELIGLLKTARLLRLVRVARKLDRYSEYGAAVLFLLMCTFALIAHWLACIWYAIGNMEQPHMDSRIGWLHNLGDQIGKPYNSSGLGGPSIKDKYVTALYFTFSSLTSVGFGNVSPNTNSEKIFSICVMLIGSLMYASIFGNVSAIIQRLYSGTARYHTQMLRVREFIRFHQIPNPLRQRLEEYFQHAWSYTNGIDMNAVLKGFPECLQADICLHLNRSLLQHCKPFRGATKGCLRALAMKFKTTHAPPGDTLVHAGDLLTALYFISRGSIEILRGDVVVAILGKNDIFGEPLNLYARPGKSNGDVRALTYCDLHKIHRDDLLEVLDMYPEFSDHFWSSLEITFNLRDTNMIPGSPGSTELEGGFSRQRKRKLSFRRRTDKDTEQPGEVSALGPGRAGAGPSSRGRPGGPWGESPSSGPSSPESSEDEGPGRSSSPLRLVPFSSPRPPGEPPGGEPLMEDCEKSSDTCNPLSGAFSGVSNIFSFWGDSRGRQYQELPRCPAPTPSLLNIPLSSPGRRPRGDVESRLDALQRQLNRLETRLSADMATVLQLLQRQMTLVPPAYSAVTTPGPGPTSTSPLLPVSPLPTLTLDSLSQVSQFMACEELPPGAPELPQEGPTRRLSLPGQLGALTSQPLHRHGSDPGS

SMILES | pIC50 [1] | pIC50 [2] | pIC50 (PCSK9 [3]) | pEC50 (PCSK9 [4])
CNC(=O)c1cnc(N[C@H]2CC[C@H](Nc3ccc(-n4ccccc4=O)cn3)C2)nn1 [Example 75, N-Methyl-3-(((1S,3S)-3-((2-oxo-2H-[1,3′-bipyridin]-6′-yl)amino)cyclopentyl)amino)-1,2,4-triazine-6-carboxamide] | < 4.40 | < 5.00 | 7.48 | 6.15
COc1cccn(-c2ccc(N[C@H]3CC[C@H](Nc4ncc(C)nn4)C3)nc2)c1=O [Example 132, 3-Methoxy-6′-(((1S,3S)-3-((6-methyl-1,2,4-triazin-3-yl)amino)cyclopentyl)amino)-2H-[1,3′-bipyridin]-2-one] | < 4.40 | 5.69 | 8.64 | 7.00
CN1CC(=O)N(c2ccc(N[C@H]3CC[C@H](Nc4ncc(C5CC5)nn4)C3)nc2)C1=O [Example 57, 3-(6-(((1S,3S)-3-((6-Cyclopropyl-1,2,4-triazin-3-yl)amino)cyclopentyl)amino)pyridin-3-yl)-1-methylimidazolidine-2,4-dione] | < 4.40 | < 5.00 | 7.96 | 6.30
Cn1c(=O)n(-c2ccc(N[C@H]3CC[C@H](Nc4ncc(C5CC5)nn4)C3)nc2)c2ncccc21 [Example 63, 3-(6-(((1S,3S)-3-((6-Cyclopropyl-1,2,4-triazin-3-yl)amino)cyclopentyl)amino)pyridin-3-yl)-1-methyl-1,3-dihydro-2H-imidazo[4,5-b]pyridin-2-one] | < 4.40 | < 5.00 | – | 7.00
Cn1c(=O)n(-c2ccc(N[C@H]3CC[C@H](Nc4ncc(C5CC5)nn4)C3)nc2)c2ccc(C(=O)O)cc21 [Example 121, 1-(6-(((1S,3S)-3-((6-Cyclopropyl-1,2,4-triazin-3-yl)amino)cyclopentyl)amino)pyridin-3-yl)-3-methyl-2-oxo-2,3-dihydro-1H-benzo[d]imidazole-5-carboxylic acid] | < 4.40 | 5.30 | 9.00 | 7.00
COc1cccn(-c2ccc(N[C@H]3CC[C@H](Nc4ncc(C5CC5)nn4)C3)nc2)c1=O [Example 64, 6′-(((1S,3S)-3-((6-Cyclopropyl-1,2,4-triazin-3-yl)amino)cyclopentyl)amino)-3-methoxy-2H-[1,3′-bipyridin]-2-one] | < 4.40 | 6.41 | 8.82 | 6.70
N#Cc1ccc(=O)n(-c2ccc(N[C@H]3CC[C@H](Nc4ncc(C5CC5)nn4)C3)nc2)c1 [Example 56, 6′-(((1S,3S)-3-((6-Cyclopropyl-1,2,4-triazin-3-yl)amino)cyclopentyl)amino)-2-oxo-2H-[1,3′-bipyridine]-5-carbonitrile] | 4.46 | < 5.00 | 8.05 | 6.52
Cc1cnc(N[C@H]2CC[C@H](Nc3ccc(-n4cccc(-c5cnn(C)c5)c4=O)cn3)C2)nn1 [Example 198, 6′-(((1S,3S)-3-((6-Methyl-1,2,4-triazin-3-yl)amino)cyclopentyl)amino)-3-(1-methyl-1H-pyrazol-4-yl)-2H-[1,3′-bipyridin]-2-one] | < 4.40 | < 5.00 | 8.54 | 7.00
Cc1cnc(N[C@H]2CC[C@H](Nc3ccc(-n4nccc(Cl)c4=O)cn3)C2)nn1 [Example 221, 4-Chloro-2-(6-(((1S,3S)-3-((6-methyl-1,2,4-triazin-3-yl)amino)cyclopentyl)amino)pyridin-3-yl)pyridazin-3(2H)-one] | < 4.40 | < 5.00 | 8.80 | 6.52
Cc1cnc(N[C@H]2CC[C@H](Nc3ccc(-n4cccc(OC(F)F)c4=O)cn3)C2)nn1 [Example 187, 3-(Difluoromethoxy)-6′-(((1S,3S)-3-((6-methyl-1,2,4-triazin-3-yl)amino)cyclopentyl)amino)-2H-[1,3′-bipyridin]-2-one] | < 4.40 | 5.42 | 8.68 | 7.00
O=C(NC1COC1)c1cnc(N[C@H]2CC[C@H](Nc3ccc(-n4ccccc4=O)cn3)C2)nn1 [Example 70, N-(Oxetan-3-yl)-3-(((1S,3S)-3-((2-oxo-2H-[1,3′-bipyridin]-6′-yl)amino)cyclopentyl)amino)-1,2,4-triazine-6-carboxamide] | < 4.40 | < 5.00 | 7.72 | 6.70
O=c1c(Cl)cccn1-c1ccc(N[C@H]2CC[C@H](Nc3ncc(C4CC4)nn3)C2)nc1 [Example 55, 3-Chloro-6′-(((1S,3S)-3-((6-cyclopropyl-1,2,4-triazin-3-yl)amino)cyclopentyl)amino)-2H-[1,3′-bipyridin]-2-one] | 4.52 | 5.80 | 9.00 | 7.00
O=c1c(C(F)(F)F)cccn1-c1ccc(N[C@H]2CC[C@H](Nc3ncc(C4CC4)nn3)C2)nc1 [Example 51, 6′-(((1S,3S)-3-((6-Cyclopropyl-1,2,4-triazin-3-yl)amino)cyclopentyl)amino)-3-(trifluoromethyl)-2H-[1,3′-bipyridin]-2-one] | 4.97 | < 5.00 | 8.74 | 7.00
O=c1cccnn1-c1ccc(N[C@H]2CC[C@H](Nc3ncc(C4CC4)nn3)C2)nc1 [Example 118] | < 4.40 | < 5.00 | 8.13 | 6.30
Cc1cnc(N[C@H]2CC[C@H](Nc3ccc(-n4ccccc4=O)cn3)C2)nn1 [Example 67, 6′-(((1S,3S)-3-((6-Methyl-1,2,4-triazin-3-yl)amino)cyclopentyl)amino)-2H-[1,3′-bipyridin]-2-one] | < 4.40 | 5.68 | 7.80 | 6.22
O=c1ccncn1-c1ccc(N[C@H]2CC[C@H](Nc3ncc(C4CC4)nn3)C2)nc1 [Example 114, 3-(6-(((1S,3S)-3-((6-Cyclopropyl-1,2,4-triazin-3-yl)amino)cyclopentyl)amino)pyridin-3-yl)pyrimidin-4(3H)-one] | 4.73 | < 5.00 | 8.12 | 6.52
Cc1cnc(N[C@H]2CC[C@H](Nc3ccc(-n4c(=O)ccc5cccnc54)cn3)C2)nn1 [Example 197, 1-(6-(((1S,3S)-3-((6-Methyl-1,2,4-triazin-3-yl)amino)cyclopentyl)amino)pyridin-3-yl)-1,8-naphthyridin-2(1H)-one] | < 4.40 | < 5.00 | 8.60 | 7.00
Cc1cnc(N[C@H]2CC[C@H](Nc3ccc(-n4cccc(C(F)(F)F)c4=O)cn3)C2)nn1 [Example 135, 6′-(((1S,3S)-3-((6-Methyl-1,2,4-triazin-3-yl)amino)cyclopentyl)amino)-3-(trifluoromethyl)-2H-[1,3′-bipyridin]-2-one] | < 4.40 | < 5.00 | 8.55 | 7.00
Cc1cnc(N[C@H]2CC[C@H](Nc3ccc(-n4cccc(C)c4=O)cn3)C2)nn1 [Example 131, 3-Methyl-6′-(((1S,3S)-3-((6-methyl-1,2,4-triazin-3-yl)amino)cyclopentyl)amino)-2H-[1,3′-bipyridin]-2-one] | < 4.14 | < 5.00 | 8.57 | 7.00
CN1C(=O)CN(c2ccc(N[C@H]3CC[C@H](Nc4ncc(C5CC5)nn4)C3)nc2)C1=O [Example 62, 1-(6-(((1S,3S)-3-((6-Cyclopropyl-1,2,4-triazin-3-yl)amino)cyclopentyl)amino)pyridin-3-yl)-3-methylimidazolidine-2,4-dione] | 4.44 | < 5.00 | 8.19 | 6.52
Cn1c(=O)n(-c2ccc(N[C@H]3CC[C@H](Nc4ncc(C5CC5)nn4)C3)nc2)c2ccc(C#N)cc21 [Example 117, 1-(6-(((1S,3S)-3-((6-Cyclopropyl-1,2,4-triazin-3-yl)amino)cyclopentyl)amino)pyridin-3-yl)-3-methyl-2-oxo-2,3-dihydro-1H-benzo[d]imidazole-5-carbonitrile] | 5.20 | < 5.00 | 9.00 | 6.52
O=c1ccc(Cl)cn1-c1ccc(N[C@H]2CC[C@H](Nc3ncc(C4CC4)nn3)C2)nc1 [Example 112, 5-Chloro-6′-(((1S,3S)-3-((6-cyclopropyl-1,2,4-triazin-3-yl)amino)cyclopentyl)amino)-2H-[1,3′-bipyridin]-2-one] | < 4.40 | 5.19 | 8.33 | 6.70
COc1ccc(=O)n(-c2ccc(N[C@H]3CC[C@H](Nc4ncc(C5CC5)nn4)C3)nc2)c1 [Example 65, 6′-(((1S,3S)-3-((6-Cyclopropyl-1,2,4-triazin-3-yl)amino)cyclopentyl)amino)-5-methoxy-2H-[1,3′-bipyridin]-2-one] | 4.41 | 7.85 | 7.93 | 6.30
